Here are results for four compounds from patent US20130123248A1, “PHARMACOLOGICAL MODULATION OF POSITIVE AMPA RECEPTOR MODULATOR EFFECTS ON NEUROTROPHIN EXPRESSION” (The Regents of the University of California, priority 2006, published 2013).

Assay [1] concerns GluR2 mRNA. The experiment in a line: GluR2 mRNA in situ hybridization in hippocampal slice cultures. It counts as cell-based, rat. The conditions noted are these: 48 h.
Assay [2] has as its system BDNF mRNA. Nature of the assay: BDNF mRNA in situ hybridization in cultured rat hippocampal slices. It counts as cell-based. The conditions noted are these: for hybridization to BDNF mRNA, principal hippocampal cell layers, entorhinal cortex, neocortex: CX614 50 μM. The protocol: Cultured hippocampal slices were prepared from rat pups (9 d postnatal) essentially as described by Lauterborn et al. (Lauterborn et al., 2000, J Neurosci 20(1):8-21). Slices were explanted onto Millicel-CM biomembrane inserts (Millipore, Bedford, Mass.; 6 slices/membrane) in a 6-well culture cluster plate (Corning, Cambridge, Mass.) containing sterile media (1 ml/well) consisting of minimum essential media, 30 mM dextrose, 30 mM HEPES, 5 mM Na2HCO3, 3 mM glutamine, 0.5 mM ascorbic acid, 2 mM CaCl2, 2.5 mM MgSO4, 1 mg/l insulin and 20% horse serum (pH 7.2; all reagents from Sigma, St. Louis, Mo.) and maintained for 10-18 d in a humidified incubator at 37° C. in 5% CO2. Media was changed three times/week. All experiments with the […]® (Cortex Pharmaceuticals) and mGluR5 antagonist (gift from FRAXA Research Foundation) began on days 11-12 in culture and were performed essentially as described by Lauterborn et al. (Lauterborn et al., 2000, J Neurosci 20(1):8-21) and Huber et al. (Huber et al., 2002, Proc Natl Acad Sci USA 99(11):7746-50). […]® were dissolved in 100% dimethylsulfoxide (DMSO; Sigma) and stored at -20° C. MPEP was dissolved in 100% DMSO. […] For controls, cultures were either untreated or treated with equivalent concentrations of vehicle (i.e., DMSO at final concentrations of 1:2,000-1:10,000). […] The cRNA to BDNF exon V was generated from PvuII-digested recombinant plasmid pRl 112-8 (Isackson et al., 1991, Neuron 6:937-948), yielding a 540 base length probe with 384 bases complementary to BDNF exon V-containing mRNA (Timmusk et al., 1993, Neuron 10:475-489). In situ hybridization was performed essentially as described by Lauterborn et al. (Lauterborn et al., 2000, J Neurosci 20(1):8-21; Lauterborn et al., 1994, Mol Cell Neurosci 5:46-62). Briefly, for in situ hybridization analyses, treatments were terminated by slice fixation with 4% paraformaldehyde in 0.1 M phosphate buffer, pH 7.2 (PPB). Cultures were re-sectioned parallel to the broad explant surface, slide-mounted, and processed for the in situ hybridization localization of BDNF mRNA using the ^35S-labeled BDNF cRNA probe described above. Following hybridization, the tissue was processed for film (Kodak Biomax) autoradiography. Quantification of in situ hybridization was performed essentially as described by Lauterborn et al. (Lauterborn et al., 2000, J Neurosci 20(1):8-21). Briefly, for quantification of in situ hybridization, hybridization densities were measured from film autoradiograms, with labeling densities calibrated relative to film images of ^14C-labeled standards (μCi/g), using the AIS system (Imaging Research Inc.). Significance was determined using the two-way ANOVA followed by Student-Newman-Keuls (SNK) or Student's t tests for individual comparisons.

The test system of assay [3] is mature BDNF protein. Nature of the assay: Western blot for mature BDNF protein in organotypic hippocampal cultures. It counts as cell-based, rat. The conditions noted are these: 24 h; CX614 50 μM. The protocol: Cultured hippocampal slices were prepared from rat pups (9 d postnatal) essentially as described by Lauterborn et al. (Lauterborn et al., 2000, J Neurosci 20(1):8-21). Slices were explanted onto Millicel-CM biomembrane inserts (Millipore, Bedford, Mass.; 6 slices/membrane) in a 6-well culture cluster plate (Corning, Cambridge, Mass.) containing sterile media (1 ml/well) consisting of minimum essential media, 30 mM dextrose, 30 mM HEPES, 5 mM Na2HCO3, 3 mM glutamine, 0.5 mM ascorbic acid, 2 mM CaCl2, 2.5 mM MgSO4, 1 mg/l insulin and 20% horse serum (pH 7.2; all reagents from Sigma, St. Louis, Mo.) and maintained for 10-18 d in a humidified incubator at 37° C. in 5% CO2. Media was changed three times/week. […]
For protein determinations, drug-treated and vehicle-treated hippocampal slice cultures were homogenized in RIPA (Radio-Immunoprecipitation Assay) buffer containing 10 mM Tris, pH 7.2, 158 mM NaCl, 1 mM EDTA, 0.1% SDS, 1% sodium deoxycholate, 1% triton-X, Complete Protease Inhibitor Cocktail (Roche Diagnostics; Indianapolis, Ind.), and Phosphatase Inhibitor Cocktails 1 and 2 (P2850 and 5726, Sigma), normalized for protein content using the Bio-Rad protein assay, and analyzed by Western blot analysis. […] Binding of anti-BDNF antibodies to BDNF was detected by enhanced chemiluminescence. Band densities were quantified using ImageQuant software (Molecular Dynamics, Sunnyvale, Calif.). […]
(In western blotting, separated proteins are transferred to a membrane and probed.)

The test system of assay [4] is GluR1 mRNA. The experiment in a line: GluR1 mRNA in situ hybridization in hippocampal slice cultures. It counts as cell-based, rat. The conditions noted are these: 48 h.
The target in assay [5] is mGluR5 (Homo sapiens, UniProt P41594). The following applies: cited from earlier work.
Chain of mGluR5 (P41594 21-1212): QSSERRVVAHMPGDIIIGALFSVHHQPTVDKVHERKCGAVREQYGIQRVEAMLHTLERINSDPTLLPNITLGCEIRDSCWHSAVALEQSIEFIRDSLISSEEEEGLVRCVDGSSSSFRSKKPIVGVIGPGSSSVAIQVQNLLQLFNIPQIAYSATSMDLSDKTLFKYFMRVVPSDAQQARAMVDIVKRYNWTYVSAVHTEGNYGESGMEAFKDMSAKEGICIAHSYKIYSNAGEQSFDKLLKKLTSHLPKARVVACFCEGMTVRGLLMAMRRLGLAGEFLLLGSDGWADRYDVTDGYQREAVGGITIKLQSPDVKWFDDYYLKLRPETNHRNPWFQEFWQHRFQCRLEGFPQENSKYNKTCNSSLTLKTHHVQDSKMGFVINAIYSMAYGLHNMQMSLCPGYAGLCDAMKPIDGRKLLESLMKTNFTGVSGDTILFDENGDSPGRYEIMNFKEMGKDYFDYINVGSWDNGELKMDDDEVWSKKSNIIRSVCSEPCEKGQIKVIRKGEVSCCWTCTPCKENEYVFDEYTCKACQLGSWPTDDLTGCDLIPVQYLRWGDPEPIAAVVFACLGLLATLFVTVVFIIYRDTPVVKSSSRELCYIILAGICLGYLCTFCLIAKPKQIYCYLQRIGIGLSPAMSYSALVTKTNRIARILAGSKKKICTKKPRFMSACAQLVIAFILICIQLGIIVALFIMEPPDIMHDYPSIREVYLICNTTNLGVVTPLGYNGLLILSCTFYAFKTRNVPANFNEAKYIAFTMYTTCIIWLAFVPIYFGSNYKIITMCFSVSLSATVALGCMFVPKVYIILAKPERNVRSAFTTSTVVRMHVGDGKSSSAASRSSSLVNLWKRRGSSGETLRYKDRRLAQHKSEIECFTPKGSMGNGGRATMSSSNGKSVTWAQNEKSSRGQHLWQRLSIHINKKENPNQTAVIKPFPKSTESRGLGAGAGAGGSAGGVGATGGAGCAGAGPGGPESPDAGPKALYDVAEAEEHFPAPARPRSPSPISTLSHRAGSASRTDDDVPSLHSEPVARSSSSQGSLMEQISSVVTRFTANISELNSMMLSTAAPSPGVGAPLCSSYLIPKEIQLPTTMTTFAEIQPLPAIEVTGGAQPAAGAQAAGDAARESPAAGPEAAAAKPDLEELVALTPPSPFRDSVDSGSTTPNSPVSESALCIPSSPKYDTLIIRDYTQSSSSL
The subject of assay [6] is rat fear-potentiated startle model of anxiety. The following applies: cited from earlier work.
The mark [7] stands for this setting: CX614 (20 μM in FIG. 6 legend, 50 μM in Example 6), MPEP 50 μM or both.

Entries after “also recorded” stand apart in the source; their conditions may differ.

In the case of `O=C1c2cc3c(cc2OC2CCCN12)OCCO3` (stereo not shown) [CX614, 2H,3H,6aH-pyrrolidino[2″,1″-3′,2′]1,3-oxazino[6′,5′-5,4]benzo[e]1,4-dioxan-10-one], in assay [1] (CX614 20 μM (FIG. 6 legend)), the “reduction of GluR2 mRNA levels, CA1 stratum pyramidale” value is roughly 50%. For the same compound, the “reduction of GluR2 mRNA levels, CA1 pyramidal cell layer, compared to control” value in assay [1] (CX614 50 μM (Example 6)) was 40-45%. Besides, the “BDNF cRNA labeling, granule cells” value is “modest increase” in assay [2] (3 h, 10 μM CX614) and “more dramatic increases” in assay [2] (3 h, higher doses of CX614 (20, 50 μM)). Further, the “BDNF mRNA levels in CA1 stratum pyramidale, effect in words” value in assay [2] (3 h, CX614 50 μM with or without MPEP 50 μM) was “small but non-significant increased”. Moreover, the “increase in BDNF mRNA, hippocampal granule cells (stratum granulosum)” value in assay [2] (3 h, CX614 50 μM with or without MPEP 50 μM, vs control) came to 6.5 fold. For the same compound, in assay [2] (3 h, CX614 10, 20 or 50 μM), the “BDNF mRNA, granule cells” value is given as “increased by all three doses”. For the same compound, the “BDNF mRNA, pyramidal cells of CA1 and CA3” value in assay [2] (3 h, CX614 10, 20 or 50 μM) is given as “only increased with the 50 μM concentration; also recorded: only 50 μM CX614 elicited significant increases”. Further, the “BDNF mRNA levels, CA1 pyramidal cells” value in assay [2] (24 h, CX614 20 μM with or without MPEP 50 μM) is given as “small but non-significant increase”. Further, the “hybridization to BDNF mRNA, principal hippocampal cell layers, entorhinal cortex, neocortex” value in assay [2] (6 h) is “increased; also recorded: markedly elevated”; in assay [2] (24 h continuous treatment) it was “still elevated above control densities; also recorded: begin to decline”. The “mature BDNF protein levels above control levels” value in assay [3] was found to be 133%. In assay [4] (CX614 20 μM (FIG. 6 legend)), the “reduction of GluR1 mRNA levels, CA1 stratum pyramidale” value worked out at 40%. Also, the “reduction of GluR1 mRNA levels, CA1 pyramidal cell layer, compared to control” value in assay [4] (CX614 50 μM (Example 6)) is 40-45%.
Consider `C=Cc1cncc(C#Cc2csc(C)n2)c1` [Iso et al. compound 59, 3-[(2-methyl-4-thiazoly)ethynyl]-5-vinylpyridine], for which the “antagonistic potency relative to MTEP” value in assay [5] is on record as 230 times.
With `Cc1cccc(C#Cc2ccccc2)n1` [MPEP, 2-methyl-6-(phenylethynyl)pyridine], the “GluR2 mRNA levels, CA1, effect in words” value in assay [1] (setting [7]) is given as “no significant effect; also recorded: small but non-significant increase”. Besides, in assay [2] (3 h, MPEP 50 μM alone), the “BDNF mRNA levels in the granule cell layer / any field, effect in words” value is on record as “unaffected; also recorded: no effect in any field”. Moreover, the “GluR1 mRNA levels, CA1, effect in words” value in assay [4] (setting [7]) was “no significant effect”.
Turning to `Cc1nc(C#Cc2cccnc2)cs1` [MTEP, 3-[(2-methyl-1,3-thiazol-4-yl)ethynyl]pyridine], the “potency relative to MPEP” value in assay [6] is 5 fold.
